Results on one substance are retold here after US20120053119A1, “THERAPEUTIC METHOD FOR INCREASING PANCREATIC BETA CELL MASS” (priority 2009, published 2012).

Holding throughout (assay type): cell-based
Assay [1] relates to Wnt signaling. The experiment in a line: Wnt signaling reporter (beta-galactosidase) in isolated islets of TopGal mouse. To be noted: SDF-1 1 nM, isolated TopGal mouse islets.
Source text: A. Isolated islets express reporter-driven beta-galactosidase. The dark regions mark the expression of beta-galactosidase, an indicator of the activation of the Wnt signaling reporter LacZ transgene. […] B. Polymerase chain reaction showing changes in beta-galactosidase mRNA levels in islets shown in panel A.
Isolated mouse pancreatic islets Mouse islets were isolated (Lacy PE (1994) Pancreatic islet cell transplant. Mt Sinai J. Med. 61:23-31.) from the pancreata of TopGal reporter mice transgenic for the LEF-LacZ Wnt signaling reporter (DasGupta R, Fuchs E (1999) Development. 1999 126:4557-4568.). Freshly isolated islets were treated for 4 hrs with SDF-1 with and without the addition of the Galphai/o inhibitor pertussis toxin (PTX) or the CXCR4 antagonist AMD3100. Betagalactosidase activity was determined by incubation of the islets with X-gal for 6 hrs.
Polymerase chain reaction analyses of betagalactosidase mRNA levels in isolated mouse islets Islets from TopGal mice were harvested after treatments with SDF-1, SDF-1+AMD3100, and SDF-1+pertussis toxin. RNA was extracted and beta galactosidase mRNA levels were measured by PCR using a SYBR Green QPCR kit (Stratagene) with the primers as described in Liu Z, Habener J F 2008 Glucagon-like Peptide-1 Activation of TCF7L2-dependent Wnt Signaling Enhances Pancreatic Beta Cell Proliferation. […]
Assay [2] deals with Wnt signaling. Briefly: Wnt signaling luciferase reporter assay (TOPflash/FOPflash) in INS-1 cells. To be noted: dose response. On the technique in general: In a reporter assay the amount or activity of a reporter protein is the signal.
Procedure: Wnt signaling is indicated by the value of TOPflash luciferase activity divided by FOPflash activity. A. Time course of the TOPflash:FOPflash ratio of INS-1 cell treated with 1 nM SDF-1. B. Ratio of TOPflash to FOPflash activity in INS-1 cells treated with increasing doses of SDF-1. C. […] All values are relative to the value of the untreated INS-1 cells. Data are normalized for transfection efficiency by co-transfected beta-galactosidase and represent means±S.D. of three experiments.
All values are relative to the first (leftmost) bar. Statistical significance is depicted as * (p<0.05) when compared with control values (leftmost bar). Data are normalized for transfection efficiency by co-transfected beta-galactosidase and represent means±S.D. of three experiments.
Wnt Signaling Luciferase Reporter Assay (TOPflash) INS-1 cells were plated into 24-well dishes 24 hr before transfection with TOPflash or the mutant, control reporter, FOPflash (1 microg/well) using LipofectAMINE2000 (Invitrogen). Various concentrations of SDF-1 or AMD3100 were then added to the culture medium 24 h following transfection for the indicated period of time. In studies in which inhibitors were used, LY294002 (50 microM), PD98059 (10 microM) or SH-5 (10 nM) were added concomitantly with SDF-1. In studies in which wild-type (wt), dominant-negative (dn) or contitutively-active (ca) forms of kinase were used, dnTCF7L2, dnGSK3beta, caGSK3beta, dnAkt, or caAkt (0.5 microg/well) was cotransfected with TOPflash. Luciferase activity in transfected cells was determined with a luciferase assay kit (Promega).
We examined SDF-1 induction of Wnt signaling using a Wnt signaling reporter assay (TOPflash/FOPflash). The TOPflash and FOPflash constructs contain the luciferase reporter either under the control of consensus TCF7L2-binding sites or mutated TCF7L2-binding sites, respectively. Luciferase activity was measured during 4 hr after addition of 1 nM SDF-1 (FIG. 3A).
Assay [3] relates to INS-1 cells. The experiment in a line: MTT assay of cell growth. The conditions noted are these: serum starved, SDF-1 10 nM, 48 hr. The protocol:
FIG. 6. Inhibition of apoptosis by SDF-1 in INS-1 and MIN-6 cells is reversed by knock-down of betacatenin. A. Western blot analysis of extracts from MIN6 cells that were mock treated, thapsigargin-treated (1 μM) and/or siRNA transfected (0.25 mg/ml), by using anti-serum against cleaved caspase-3 (upper panel), anti-serum against cleaved PARP (middle panel) and actin antibody (lower panel) as a loading control. B. Caspase-3 activity (fluorescence/mg proteinx105) of INS-1 or MIN6 cells mock treated, thapsigargin-treated (1 μM) and/or siRNA transfected (0.25 mg/ml). Results are presented as mean±SD for n=3 independent experiments, All values are relative to the first (leftmost) bar. Statistical significance is depicted as * (p<0.05) when compared with control values (leftmost bar) and # (<0.05) when compared with […] thapsigargin treatment. C. Representative images are shown for TUNEL staining of INS-1 cells of n=3 independent experiments. Quantification of apoptotic cells is expressed as percent apoptotic cells relative to the total cells counted (lower left panel). D. The proliferation rates of INS-1 cells after SDF-1 or Exd4 treatment are presented as relative BrdU and MTT incorporation values compared to that of control treated cells. […]
MTT Assay Growth of INS-1 cells was determined by the MTT system. […]
For orientation: Formazan colour is commonly taken as a measure of viable cells.

The test system of another assay is Akt. The experiment in a line: Phospho-Akt to Akt ratio by Western immunoblot in alphaTC-1 cells. The source says:
FIG. 18. Activation of CXCR4 by SDF-1 in alphaTC-1 cells induces phosphorylation of Akt. Shown is a semi-quantitative measurement of the ratio of phospho-Akt to Akt (lower) determined by Western immunoblots (upper).
In general terms: Immunoblotting shows a protein as a band on a membrane.

For assay [4], the system named is prohormone convertase PC1/3. The experiment in a line: PC1/3 expression by QPCR in alphaTC-1 cells. The conditions noted are these: by one hour after addition of SDF-1, QPCR. An excerpt:
FIG. 19. […] Determined by QPCR. High priority experiments planned are to examine PC1/3 protein expression in isolated mouse islets using Western immunoblot, immunocytochemistry, and bioassays for active PC 1/3.

The subject of the next assay is alphaTC-1 cells. Briefly: GLP-1 production in alphaTC-1 cells, RIA of media. The protocol:
FIG. 20. […] Upper panel: AlphaTC-1 and alphaTCdeltaPC2 cells were incubated for 24 hrs and total GLP-1 secreted was measured in the media. Lower panel: AlphaTC-1 cells were treated with SDF-1 or SDF-1+exendin-4 (Exd4) for the times indicated. Media obtained from the cells was assayed with an RIA specific for the active GLP-1. The findings of increased expression of PC1/3 activity, as evidenced by the production of GLP-1. In the absence of PC2 in alphaTCdPC2 cells is consistent with the findings reported by Wideman et al from the Kieffer lab and by Webb et al in the Steiner lab. It appears that in the absence of PC2, PC13 is expressed. The appearance of GLP-1 between 1 and 4 hrs (lower panel) is consistent with the induction of PC1/3 expression shown above in […]. A most high priority in the experiments planned is to determine whether SDF-1 (and cytokines) induce the production of GLP-1 peptide in mouse islets, pending the availability of support required to do these studies.

The test system of assay [5] is INS-1 cells. The experiment in a line: ATP-lite cell viability assay, glucose toxicity. The conditions noted are these: 25 mM glucose, SDF-1 added day 0, 2, 4, read day 6. The protocol:
FIG. 34. […] For bars 3-8, SDF-1 was added at the indicated concentrations to high glucose concentration well plates at day 0, 2, 4. Cell viability was measured at day 6. N=4.
SDF-1 was added at various concentrations (0.1 nM, 0.25 nM, […], 1 nM, 2.5 nM, and 5 nM) to high glucose concentration well plates at day 0, 2, 4. Cell viability was measured at day 6, using the ATP-lite cell viability assay (PerkinElmer, Boston, Mass.).

Assay [6] has as its system INS-1 cells. Briefly: ATP-lite cell viability assay, serum deprivation, SDF-1 with AMD3100. To be noted: serum-free medium, SDF-1 2 nM, day 6. The protocol: ATP lite cell viability assay: INS-1 cells were plated in 96 well plates. SDF-1 (2 nM) and AMD3100 were added at day 0, 2, 4 and cell viability was measured at day 6 using relative light units (RLU) as compared to control. N=6.
INS-1 cells were plated in 96 well plates in control medium (no serum) or a medium containing 2% serum. SDF-1 (2 nM) and SDF-1 (2 nM) along with various concentrations of AMD3100 (2 uM, 0.4 uM, 80 nM, 16 nM) were added to different cell groups incubated in serum-free medium at days 0, 2, 4, and cell viability was measured at day 6 using relative light units (RLU) as compared to control.

Take “SDF-1: small, secreted 70 amino acid peptide chemokine, SEQ ID NO: 1, ligand of CXCR4”: in the assay with Wnt signaling [1], the “activation of Wnt signaling (beta-galactosidase) in TopGal islets” value was “activates Wnt signaling”. Further, the “SDF-1 concentration giving maximum Wnt signaling response (TOPflash/FOPflash)” value in the assay on Wnt signaling [2] was 0.4 nM. In the assay on INS-1 cells [3], the “effect on proliferation of INS-1 cells, MTT assay” value is reported as “no detectable effects”. Also, the “Akt activation (phosphorylation) in alpha cells” value with Akt is listed as “activates Akt”. Further, the PC1/3 expression result in assay [4] is given as “induces prohormone convertase PC1/3 expression”. Besides, the “production of processed GLP-1 peptide” value in the assay on alphaTC-1 cells is “induces the production of processed GLP-1 peptide”. In addition, in the assay with INS-1 cells [5], the “protection of cell viability against glucose toxicity” value is “dose-dependently protects”. The “protection of cell viability in serum deprivation” value in the assay on INS-1 cells [6] is recorded as “protects INS-1 cells from dying”.
